Where a name gives a salt, the structure may show the parent alone.
Legend:
[1] = molecular target: T1, TP receptor (Homo sapiens, UniProt P21731); test: human TP calcium mobilisation assay (CHO-K1 cells, U46619, FLIPR); format: cell-based; conditions: free bases or sodium salts; read-out: functional pKi, human TP calcium mobilisation assay (converted)
T1 construct: expressed in transfected cells; host or cells: CHO-K1
T1 sequence (P21731 1-343): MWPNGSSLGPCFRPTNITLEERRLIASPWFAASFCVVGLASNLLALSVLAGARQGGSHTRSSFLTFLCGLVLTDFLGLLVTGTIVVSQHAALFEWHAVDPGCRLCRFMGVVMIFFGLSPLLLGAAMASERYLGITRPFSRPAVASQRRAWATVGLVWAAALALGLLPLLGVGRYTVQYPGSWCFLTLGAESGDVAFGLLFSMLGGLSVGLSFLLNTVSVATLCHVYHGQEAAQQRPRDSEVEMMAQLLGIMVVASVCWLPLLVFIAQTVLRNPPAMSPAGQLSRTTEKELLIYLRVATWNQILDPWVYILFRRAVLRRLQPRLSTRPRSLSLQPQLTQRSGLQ
Protocol: To determine if a compound has agonist or antagonist activity at the TP receptor a functional calcium mobilisation assay may be performed. Briefly, the antagonist properties of compounds are assessed by their ability to inhibit the mobilisation of intracellular calcium ([Ca^2+]i) in response to activation of TP receptors by the stable TXA2 mimetic U46619 (9,11-dideoxy-11α,9α-epoxy-methanoprostaglandin F2 α; commercially available from e.g Sigma-Aldrich). Increasing concentrations of antagonist reduce the amount of calcium that a given concentration of U46619 can mobilise. The net effect is to displace the U46619 concentration-effect curve. The amount of calcium produced is assessed using a calcium-sensitive fluorescent dye such as Fluo-4, AM and a suitable instrument such as a Fluorimetric Imaging Plate Reader (FLIPR). Increasing amounts of [Ca^2+]i produced by receptor activation increase the amount of fluorescence produced by the dye and give rise to an increasing signal. The signal may be detected using the FLIPR instrument and the data generated may be analysed with suitable curve-fitting software. The agonist activity of the compounds are determined by their ability to cause an increase in intracellular mobilisation in the absence of U46619.
(§1) The human TP calcium mobilisation assay utilises Chinese hamster ovary-K1 (CHO-K1) cells into which a stable (pCIN; BioTechniques 20 (1996): 102-110) vector containing TP cDNA has previously been transfected. Cells are cultured in suitable flasks containing culture medium such as DMEM:F-12 supplemented with 10% v/v foetal calf serum, 2 mM L-glutamine, 0.25 mg/ml geneticin, 100 μM flurbiprofen and 10 μg/ml puromycin.
(§2) For assay, cells are harvested using a proprietary reagent that dislodges cells such as Versene. Cells are re-suspended in a suitable quantity of fresh culture media for introduction into a 96-well plate. Following incubation for 24 hours at 37° C. the culture media is replaced with a medium containing Fluo-4 and the detergent pluronic acid, and a further incubation takes place. Concentrations of compounds are then added to the plate in order to construct concentration-effect curves. This may be performed on the FLIPR in order to assess the agonist properties of the compounds. Concentrations of U46619 are then added to the plate in order to assess the antagonist properties of the compounds.
The data so generated may be analysed by means of a computerised curve-fitting routine. The concentration of compound that elicits a half-maximal inhibition of the calcium mobilisation induced by U46619 (plC50) may then be estimated, and the percentage activation caused by the compounds directly can be used to determine if there is any agonism present.

[2] = molecular target: T2, EP1 receptors (Homo sapiens, UniProt P34995); test: human EP1 calcium mobilisation assay (CHO-K1 cells, PGE2, FLIPR); format: cell-based; set-up: expressed in transfected cells; host or cells: CHO-K1; conditions: free bases or sodium salts; averages of a number of experiments; read-out: functional pKi value, human EP1 calcium mobilisation assay (converted)
T2 sequence (P34995 1-402): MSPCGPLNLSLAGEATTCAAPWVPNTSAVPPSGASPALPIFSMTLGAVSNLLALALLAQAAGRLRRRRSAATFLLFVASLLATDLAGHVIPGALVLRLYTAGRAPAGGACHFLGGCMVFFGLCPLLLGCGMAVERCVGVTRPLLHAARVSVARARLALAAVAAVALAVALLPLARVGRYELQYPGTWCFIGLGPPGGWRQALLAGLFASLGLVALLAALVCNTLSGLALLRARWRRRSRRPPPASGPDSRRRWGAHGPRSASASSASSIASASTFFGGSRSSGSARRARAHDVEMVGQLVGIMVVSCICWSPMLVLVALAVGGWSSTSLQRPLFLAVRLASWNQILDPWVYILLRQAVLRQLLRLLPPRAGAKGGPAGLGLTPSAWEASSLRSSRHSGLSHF
Protocol: Briefly, the antagonist properties of compounds are assessed by their ability to inhibit the mobilisation of intracellular calcium ([Ca^2+]i) in response to activation of EP1 or EP3 receptors by the natural agonist hormone prostaglandin E2 (PGE2). Increasing concentrations of antagonist reduce the amount of calcium that a given concentration of PGE2 can mobilise. The net effect is to displace the PGE2 concentration-effect curve to higher concentrations of PGE2. The amount of calcium produced is assessed using a calcium-sensitive fluorescent dye such as Fluo-4, AM and a suitable instrument such as a Fluorimetric Imaging Plate Reader (FLIPR). Increasing amounts of [Ca^2+]i produced by receptor activation increase the amount of fluorescence produced by the dye and give rise to an increasing signal. The signal may be detected using the FLIPR instrument and the data generated may be analysed with suitable curve-fitting software.
as §1, with “human EP1 or EP3” for “human TP”, “assay (hereafter referred to as ‘the calcium assay’)” for “assay”, “containing either EP1 or EP3” for “containing TP”, “10 µg/ml” for “10 μg/ml”
as §2, with “384-well” for “96-well”, “PGE2” for “U46619”
The data so generated may be analysed by means of a computerised curve-fitting routine. The concentration of compound that elicits a half-maximal inhibition of the calcium mobilisation induced by PGE2 (pIC50) may then be estimated.

SMILES: O=C(O)c1cccc(Cc2cc(Cl)ccc2OCc2ccc(Cl)cc2Cl)n1 [Example 12, Sodium 6-[(5-chloro-2-{[(2,4-dichlororophenyl)methyl]oxy}phenyl)methyl]-2-pyridinecarboxylate]
- Ki [1]: ≤ 31.6 nM
- Ki [2]: ≤ 31.6 nM

SMILES: CS(=O)(=O)NC(=O)c1cccc(Cc2cc(Cl)ccc2OCc2ccc(Cl)cc2F)n1 [Example 29, 6-[(5-Chloro-2-{[(4-chloro-2-fluorophenyl)methyl]oxy}-phenyl)methyl]-N-(methylsulphonyl)-2-pyridinecarboxamide]
- Ki [1]: > 1000 nM
- Ki [2]: ≤ 31.6 nM

SMILES: O=C(O)c1cccc(Cc2cc(Cl)ccc2OCc2ccc(F)cc2F)n1 [Example 4, Sodium 6-[(5-chloro-2-{[(2,4-difluorophenyl)methyl]oxy}phenyl)methyl]-2-pyridinecarboxylate]
- Ki [1]: < 1000 nM
- Ki [2]: ≤ 31.6 nM

SMILES: O=C(O)c1cccc(Cc2cc(Cl)ccc2OCc2ccc(F)cc2Cl)n1 [Example 11, Sodium 6-[(5-chloro-2-{[(2-chloro-4-fluorophenyl)methyl]oxy}phenyl)methyl]-2-pyridinecarboxylate]
- Ki [1]: < 1000 nM
- Ki [2]: < 1000 nM

SMILES: Cc1noc(C)c1S(=O)(=O)NC(=O)c1cccc(Cc2cc(Cl)ccc2OCc2ccc(Cl)cc2F)n1 [Example 36, 6-[(5-Chloro-2-{[(4-chloro-2-fluorophenyl)methyl]oxy}-phenyl)methyl]-N-[(3,5-dimethyl-4-isoxazolyl)sulphonyl]-2-pyridinecarboxamide]
- Ki [1]: < 1000 nM
- Ki [2]: ≤ 31.6 nM

SMILES: O=C(NS(=O)(=O)c1ccccc1)c1cccc(Cc2cc(Cl)ccc2OCc2ccc(Cl)cc2F)n1 [Example 28, 6-[(5-chloro-2-{[(4-chloro-2-fluorophenyl)methyl]oxy}phenyl)-methyl]-N-(phenylsulphonyl)-2-pyridinecarboxamide]
- Ki [1]: < 1000 nM
- Ki [2]: ≤ 31.6 nM

SMILES: Cc1ccc(C(=O)O)nc1Cc1cc(Cl)ccc1OCc1ccc(Cl)cc1F [Example 39, 6-[(5-Chloro-2-{[(4-chloro-2-fluorophenyl)methyl]oxy}-phenyl)methyl]-5-methyl-2-pyridinecarboxylic acid, sodium salt]
- Ki [1]: ≤ 31.6 nM
- Ki [2]: < 1000 nM

SMILES: Fc1cc(Cl)ccc1COc1ccc(Cl)cc1Cc1cccc(-c2nnn[nH]2)n1 [Example 38, 2-[(5-Chloro-2-{[(4-chloro-2-fluorophenyl)methyl]oxy}phenyl)-methyl]-6-(1H-tetrazol-5-yl)pyridine]
- Ki [1]: ≤ 31.6 nM
- Ki [2]: ≤ 31.6 nM

SMILES: O=C(O)c1cccc(Cc2cc(Cl)ccc2OCc2cc(F)c(F)cc2F)n1 [Example 10, Sodium 6-[(5-chloro-2-{[(2,4,5-trifluorophenyl)methyl]oxy}phenyl)methyl]-2-pyridinecarboxylate]
- Ki [1]: < 1000 nM
- Ki [2]: < 1000 nM

SMILES: O=C(O)c1cccc(Cc2cc(Cl)ccc2OCc2ccc(Cl)cc2F)n1 [Example 3, Sodium 6-[(5-chloro-2-{[(4-chloro-2-fluorophenyl)methyl]oxy}phenyl)methyl]-2-pyridinecarboxylate]
- Ki [1]: ≤ 31.6 nM
- Ki [2]: ≤ 31.6 nM

SMILES: O=C(O)c1cccc(Cc2cc(Cl)ccc2OCC2CCCC2)n1 [Example 14, Sodium 6-({5-chloro-2-[(cyclopentylmethyl)oxy]phenyl}methyl)-2-pyridinecarboxylate]
- Ki [1]: < 1000 nM
- Ki [2]: < 1000 nM

SMILES: CCCS(=O)(=O)NC(=O)c1cccc(Cc2cc(Cl)ccc2OCc2ccc(Cl)cc2F)n1 [Example 30, 6-[(5-Chloro-2-{[(4-chloro-2-fluorophenyl)methyl]oxy}-phenyl)methyl]-N-(propylsulphonyl)-2-pyridinecarboxamide]
- Ki [1]: < 1000 nM
- Ki [2]: ≤ 31.6 nM

SMILES: O=C(NS(=O)(=O)c1ccc(Br)cc1)c1cccc(Cc2cc(Cl)ccc2OCc2ccc(Cl)cc2F)n1 [Example 33, N-[(4-Bromophenyl)sulphonyl]-6-[(5-chloro-2-{[(4-chloro-2-fluorophenyl)methyl]oxy}phenyl)-methyl]-2-pyridinecarboxamide]
- Ki [1]: > 1000 nM
- Ki [2]: < 1000 nM

SMILES: O=C(NS(=O)(=O)c1cccc(Br)c1)c1cccc(Cc2cc(Cl)ccc2OCc2ccc(Cl)cc2F)n1 [Example 34, N-[(3-Bromophenyl)sulphonyl]-6-[(5-chloro-2-{[(4-chloro-2-fluorophenyl)methyl]oxy}phenyl)-methyl]-2-pyridinecarboxamide]
- Ki [1]: ≤ 31.6 nM
- Ki [2]: ≤ 31.6 nM

Source: patent publication US7759369B2, “Pyridine compounds for the treatment of prostaglandin mediated diseases” (Glaxo Group Limited, priority 2004, dated 2010)
